# System: bacteria/yeasts cocktail indicated in table 28
# Assay: Disinfection test on simulated wagon washing water with Ca(OH)2
# Format: cell-based
# Description: In order to simulate wagon washing water, a buffered kitchen salt solution was used, comprising 3% by weight of a suspension of calcium carbonate, taken from example 1.
# The Ca(OH)2 was dissolved in a buffered solution of sterile phosphate at 0.85% by weight (PBS) and was mixed after 24 hours' storage at 30° C. with the bacteria/yeasts cocktail indicated in table 28.
# The samples were incubated once more for 24 hours at 30° C. and then removed from the plates.
# The germs which had grown were examined under an optical microscope.
# A cocktail of bacteria (in PBS), firstly, and a bacteria/yeasts cocktail in (PBS), secondly, were mixed with Ca(OH)2, stored, and then removed from their moulds.
# Tables 29 and 30 indicate the OH^− ion concentration (mole/l) and the yeast germ concentration (number/ml) measured in the samples, after 24-hours' incubation, for different initial concentrations of Ca(OH)2.
# Samples 9 and 10 of initial Ca(OH)2 concentration equal to 1000 ppm were then removed from their mould at 30° C. on to a bacterial medium called a PCA (Plate Count Agar).
# After 48 hours' incubation, the samples are once again removed from their moulds on to the same medium of type PCA.
# For a part of sample 9, named 9-2, the OH^− ion concentration was reduced to a value of 5×10^−7 mole/l by the addition of gaseous CO2. […]
smiles,measurement,setting,value
[Ca+2].[OH-].[OH-] [Ca(OH)2],microbial germs,"curative mode, initial Ca(OH)2 1000 ppm, after 24 hours",less than 10 number/ml
same,microbial germs concentration,"protective mode, initial Ca(OH)2 200 ppm, after 24 hours' incubation at 30° C.",1000 number/ml

# — patent US8889068B2, “Method for controlling microbial contamination, mineral suspensions obtained and uses thereof” (Omya International AG, priority 2005, dated 2014)
